US6603023B2 (priority 1996, dated 2003)
Read-outs that look alike come from different tables or passages of the source. Marks after values point to notes of the source that are not given here. Starred links: 1 amine or outer side, 2 acyl side, 3 side chain; linkers in the order of their positions; H or OH if unused. Positions of bridges follow the written chain, without caps; N, C: chain ends. Non-standard residues stand in square brackets, D forms with d. Residues, ends and D or L forms follow the SMILES beside them. Chains are numbered I, II in the order given. Actinocin(9to1) = Cc1c2oc3c(C)ccc(C(=O)[*:1])c3nc-2c(C(=O)[*:2])c(N)c1=O; NMeV = CN[C@H](C(=O)O)C(C)C; Sar = CNCC(=O)O

Experiments:
[1] = system: CCRF-CEM human T-cell acute lymphoblastic leukemia cell line; test: XTT cytotoxicity (cell growth inhibition), CCRF-CEM
Outline: (§1)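 Duplicate 72 h cultures at 5×10^4 cells/mL, 37 °C, 5% CO2; then XTT plus PMS for 4 h; dual-wavelength read at 450/630 nm. Resistant sublines held under their selecting agents.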

[2] = system: CCRF-CEM/Taxol®; test: cells; assay type: cell-based, human; details: for IC50: Table 1A, XTT, 72 h, read-out: IC50
Outline: as §1

[3] = system: CCRF-CEM/VBL100; test: cells; assay type: cell-based, human; details: for (B)/(A) IC50 ratio: CCRF-CEM/VBL100 vs CCRF-CEM
Outline: as §1

[4] = system: CCRF-CEM/VM1; test: cells; assay type: cell-based, human; details: for (D)/(A) IC50 ratio: CCRF-CEM/VM1 vs CCRF-CEM
Outline: as §1

[5] = system: DC-3F hamster lung fibroblast cell line; test: SRB cytotoxicity, DC-3F; assay type: cell-based; details: read-out: IC50
Method: (§2) The DC-3F hamster lung fibroblast cell line and its actinomycin D-selected sublines (DC-3F/ADII and DC-3F/ADX) were obtained from the Memorial Sloan-Kettering Cancer Center (MSKCC).
(§3) The drug-resistant cell lines were continuously cultured in the presence of the selecting agent, AD, DX, VBL or VM to maintain the drug resistant phenotypes. […] All cells were cultured in RPMI 1640-10% FBS at 37° C. 5% CO2 (see below).
(§4) The cytotoxicity of the drug toward the monolayer cell cultures (such as DC-3F, MCF-7, SK-N-As and sublines) was determined in 96-well microtiter plates by the SRB method as described by Skehan and co-workers (Skehan, P., et al., J. Natl. Cancer Inst. 1990, 82, 1107-1112) for measuring the cellular protein content. Cultures were fixed with trichloroacetic acid and then stained for 30 min with 0.4% suforhodamine B dissolved in 1% acetic acid. Unbound dye was removed by acetic acid washes, and the protein-bound dye was extracted with an unbuffered Tris base (tris(hydroxy-methyl)aminomethane) for determination of absorbance at 570 nm in a 96-well microtiter plate reader. The experiments were carried out in duplicate. Each run entailed six to seven concentrations of the tested drugs. Data were analyzed with the median-effect plot (Chou, T.-C. & Talalay, P. T. (1984) Adv. Enzyme Regul. 22, 27-55) using a previously described computer program (Chou, J., & Chou T.-C. 1987, Dose-effect analysis with microcomputers: Quantitation of ED50, synergism, antagonism, low-dose risk, reception-ligand binding and enzyme kinetics, IBM-PC software and manual, Biosoft, Cambridge, U.K.).

[6] = system: DC-3F/ADII; test: SRB cytotoxicity, DC-3F/ADII; assay type: cell-based, hamster; details: Table 3; read-out: IC50
Method: as §2, §3, §4
(§5) Concerning Table 3, experiments were carried out using the cell lines DC-3F (parent hamster lung cells), DC-3F/ADII (moderate multidrug-resistant (MDR) cells) and DC-3F/ADX (very strong MDR cells).

[7] = system: DC-3F/ADX; test: cells; assay type: cell-based, hamster; details: for folds of resistance (IC50 ratio vs parent cell line): DC-3F/ADX vs DC-3F; for IC50: read-out: IC50
Method: as §2, §3, §4, §5

[8] = system: murine leukemic P388/0; test: XTT cytotoxicity, P388/0; assay type: cell-based; details: Table 1C; XTT, 72 h; read-out: IC50
Method: as §2, §3
(§6) The cells were cultured at an initial density of 5×10^4 cells/mL. They were maintained in a 5% CO2-humidified atmosphere at 37° C. in RPMI-1640 medium (GIBCO-BRL, Gaithersburg, Md.) containing penicillin (100 U/mL), streptomycin ([…]) (GIBCO-BRL) and 10% heat inactivate fetal bovine serum. Culture for cell suspension (such as for CCRF-CEM, P388 and sublines), were performed by the XTT-microculture tetrazonium method (Scudiero, D. A. et al., Cancer Res. 1988, 48, 4827-4833) in duplicate in 96-well microtiter plates.
(§7) 2′,3′-Bis(methoxy-4-nitro-5-sufophenyl)-5-[(phenylamino)carbonyl]2H-tetrazolium hyudroxide (XTT) was prepared at 1 mg/mL in prewarmed (37° C.) medium without serum. Phenazine methosulfate (PMS) and fresh XTT were mixed together to obtain 0.025 mM PMS-XTT solution (25 μL of the stock 5 mM PMS was added per 5 mL of 1 mg/mL XTT). Following a 72 h incubation, 50 μL of the assay aliquots were added to each well of the cell culture. After incubation at 37° C. for 4 h, absorbance at 450 nm and 630 nm was measured with a microplate reader (EL340, Bio-Tek Instruments, Inc., Winooski, Vt.).

[9] = system: P388/Adr; test: cells; assay type: cell-based, murine; details: Table 1C; for folds of resistance (IC50 ratio vs parent cell line): P388/Adr vs P388/O; for IC50: XTT, 72 h, read-out: IC50
Method: as §3, §6, §7

[10] = system: human neuroblastoma SK-N-As; test: SRB cytotoxicity, SK-N-As; assay type: cell-based; details: Table 1C; SRB, 72 h; read-out: IC50
Method: as §2, §3, §4

[11] = system: SK-N-FI; test: cells; assay type: cell-based, human; details: Table 1C; for folds of resistance (IC50 ratio vs parent cell line): SK-N-FI vs SK-N-As; for IC50: SRB, 72 h, read-out: IC50
Method: as §3, §4

[12] = system: MCF-7; test: SRB cytotoxicity, MCF-7; assay type: cell-based, human; details: Table 1C; SRB, 72 h; read-out: IC50
Method: as §4

[13] = system: MCF-7/Adr; test: cells; assay type: cell-based, human; details: Table 1C; for folds of resistance (IC50 ratio vs parent cell line): MCF-7/Adr vs MCF-7; for IC50: SRB, 72 h, read-out: IC50
Method: Cultures were fixed with trichloroacetic acid and then stained for 30 min with 0.4% suforhodamine B dissolved in 1% acetic acid. Unbound dye was removed by acetic acid washes, and the protein-bound dye was extracted with an unbuffered Tris base (tris(hydroxy-methyl)aminomethane) for determination of absorbance at 570 nm in a 96-well microtiter plate reader. The experiments were carried out in duplicate. Each run entailed six to seven concentrations of the tested drugs.

[14] = Table 1A, XTT, 72 h, read-out: IC50

Compound | (C)/(A) IC50 ratio [2] | IC50 [2] | (B)/(A) IC50 ratio ([3]; Table 1A) | IC50 [3, 14] | (D)/(A) IC50 ratio ([4]; Table 1A) | IC50 [4, 14] | IC50 ([5]; Table 1C, SRB, 72 h) | folds of resistance (IC50 ratio vs parent cell line) ([7]; Table 1C) | IC50 ([7]; Table 1C, SRB, 72 h) | IC50 [8] | folds of resistance (IC50 ratio vs parent cell line) [9] | IC50 [9] | IC50 [10] | folds of resistance (IC50 ratio vs parent cell line) [11] | IC50 [11] | IC50 [12] | folds of resistance (IC50 ratio vs parent cell line) [13] | IC50 [13] | further results
Cc1c2oc3c(C)ccc(C(=O)N[C@@H]4C(=O)N[C@H](C(C)C)C(=O)N5CCC[C@H]5C(=O)N(C)CC(=O)N(C)[C@@H](C(C)C)C(=O)O[C@@H]4C)c3nc-2c(C(=O)N[C@@H]2C(=O)N[C@H](C(C)C)C(=O)N3CCC[C@H]3C(=O)N(C)CC(=O)N(C)[C@@H](C(C)C)C(=O)O[C@@H]2C)c(N)c1=O [Actinomycin D, actinomycin D] (I: T[dV]P[Sar][NMeV] / II: T[dV]P[Sar][NMeV]; ester I:1-I:C, II:1-II:C; linker I:N-II:N via Actinocin(9to1)) | 3.7 | 1.3 nM | 109 | 38 nM | 0.8 | 0.27 nM | 0.44 nM | (13000x) | 572 nM | 0.15 nM | (8x) | 1.2 nM | 0.85 nM | (14x) | 11.9 nM | 0.68 nM | (2.5x) | 1.67 nM | IC50 ([1]; Table 1A, XTT, 72 h): 0.35 nM; IC50 ([5]; Table 3): 0.058 nM; IC50 ([5]; Table 3, value in parentheses): 0.0582 nM; IC50 [6]: 8.2 nM; fold resistance vs parent DC-3F ([7]; DC-3F/ADX cells, listed as AD): 13,000 fold; IC50 ([7]; Table 3): 486 nM
C/C(=C\c1csc(C)n1)[C@@H]1C[C@@H]2O[C@@H]2CCC[C@H](C)[C@H](O)[C@@H](C)C(=O)C(C)(C)[C@@H](O)CC(=O)O1 [Epothilone A, epothilone A] | 1.4 | 3.7 nM | 7.4 | 20 nM | 2.3 | 6.1 nM | 3.7 nM | (14.5x)# | 53 nM | 1.8 nM | (5.3x)# | 1 nM | 12 nM | (1.9x)# | 23 nM | 3 nM | (3.1x)# | 9.4 nM | IC50 [1]: 2.7 nM; IC50 ([1]; Table 1, XTT): 3 nM; IC50 ([1]; Table 7, CEM): 2.9 nM; IC50 ([1]; read-out: IC50 (A), Table 2A, parent cell line): 3.2 nM; (B)/(A) ratio (fold resistance >1, collateral sensitivity <1) [3]: (7.5)^a; fold resistance (cross-resistance) vs parent CCRF-CEM ([3]; CCRF-CEM/VBL100 MDR cells): 8 fold; IC50 ([3]; Table 1, XTT, read-out: IC50): 20 nM; IC50 ([3]; Table 2A, MDR cell line, read-out: IC50 (B)): 24 nM; IC50 ([3]; Table 7, CEM/VBL, read-out: IC50): 20.3 nM; IC50 ([3]; read-out: IC50): 20 nM; (C)/(A) ratio (fold resistance >1, collateral sensitivity <1) [4]: (1.06)^a; IC50 ([4]; Table 1, XTT, read-out: IC50): 3 nM; IC50 ([4]; Table 2A, Topo II gene mutated cell line, read-out: IC50 (C)): 3.4 nM; IC50 ([5]; relative potency ordering): 3.6 nM; IC50 ([7]; relative potency ordering): 60 nM
